Source: US10323051B2, “Methods for controlling depolymerization of polymer compositions” (RHODIA OPERATIONS, priority 2011, dated 2019)
Read-outs that look alike come from different tables or passages of the source.

What was measured:
[1] = Molecular weight determination of polymer in the presence of THPS by GPC with light scattering detection; type: physicochemical; conditions: for Mn / Mw / Polydispersity (Mw/Mn): 75 ppm THPS, 1% pol A, overnight at ambient temperature
[2] = Viscosity of THPS-(1%) polyacrylamide aqueous dispersion (OFITE viscometer, 300 rpm); type: physicochemical; conditions: for viscosity @300 rpm after 60 minutes: no depolymerization inhibitor; for viscosity @300 rpm after 60 minutes / viscosity @300 rpm (shear rate 500 s-1) after 60 minutes: 1% polyacrylamide; for effect on depolymerization: polyacrylamide with THPS under aerobic conditions at acidic pH, inhibitor added
[3] = guar or guar derivatives mixed with THPS at 10-1000 ppm
Description: The polymer(s) under investigation were weighed and dissolved in (deionized) DI water to attain a desired concentration (for example, 0.48% w/w guar, 1.0% w/w polyacrylamide). The solution was mixed thoroughly for 1 h to ensure that the polymer had fully or substantially dissolved and the polymer fully hydrated
The polymer solution as prepared above was placed in a 250 ml beaker. Viscosity was measured with an OFITE viscometer (model 900). Initial viscosity was recorded (300 rpm) (at 500 s^−1) and then an acetic acid/sodium acetate buffer added to achieve a total concentration in the polymer solution of 0.2% w/w. pH and viscosity were recorded and then the depolymerization inhibitor was added. THPS at the concentration being investigated was then added. Viscosity measurements were then made at various time intervals as recorded in the table of FIG. 1.

tetrakis(hydroxymethyl)phosphonium sulfate [THPS, reference compound]
Mn ([1]; no inhibitor): 652,000 g/mol | Mw ([1]; no inhibitor): 812,000 g/mol | Polydispersity (Mw/Mn) ([1]; no inhibitor): 1.25 | Mw of THPS/polymer solution without an inhibitor relative to Mw with an inhibitor ([1]; after being left overnight): approximately half | viscosity @300 rpm after 60 minutes ([2]; 50 ppm THPS, initial viscosity 23.8 cP): 9.7 cP | viscosity @300 rpm after 60 minutes ([2]; 75 ppm THPS, initial viscosity 23.8 cP): 7.3 cP | viscosity @300 rpm after 60 minutes ([2]; 100 ppm THPS, initial viscosity 23.8 cP): 3.9 cP | viscosity @300 rpm after 60 minutes ([2]; 125 ppm THPS, initial viscosity 23.8 cP): 2 cP | effect on viscosity and molecular weight ([2]; polyacrylamide or polyacrylamide-co-acrylic acid solutions mixed with THPS at 50-1000 ppm): reduction in viscosity along with a corresponding molecular weight reduction | effect on viscosity and molecular weight [3]: reduction in viscosity of the application fluid along with a corresponding molecular weight reduction

O=C1O[C@H]([C@@H](O)CO)C(O)=C1O [ascorbic acid]
Mn ([1]; 1 ppm ascorbic acid): 1,460,000 g/mol | Mw ([1]; 1 ppm ascorbic acid): 1,770,000 g/mol | Polydispersity (Mw/Mn) ([1]; 1 ppm ascorbic acid): 1.22 | Mn ([1]; 10 ppm ascorbic acid): 1,480,000 g/mol | Mw ([1]; 10 ppm ascorbic acid): 1,840,000 g/mol | Polydispersity (Mw/Mn) ([1]; 10 ppm ascorbic acid): 1.25 | Mn ([1]; 50 ppm ascorbic acid): 1,590,000 g/mol | Mw ([1]; 50 ppm ascorbic acid): 1,890,000 g/mol | Polydispersity (Mw/Mn) ([1]; 50 ppm ascorbic acid): 1.19 | viscosity @300 rpm (shear rate 500 s-1) after 60 minutes ([2]; 75 ppm THPS with 100 ppm ascorbic acid (rerun), initial viscosity 27.5 cP): 25.9 cP | viscosity @300 rpm (shear rate 500 s-1) after 60 minutes ([2]; 75 ppm THPS with 200 ppm ascorbic acid, initial viscosity 27.5 cP): 24.5 cP | effect on depolymerization [2]: the depolymerization is controlled or stopped

Oc1ccc(O)cc1 [hydroquinone]
viscosity @300 rpm (shear rate 500 s-1) after 60 minutes ([2]; 75 ppm THPS with 25 ppm hydroquinone, initial viscosity 23.8 cP): 14.6 cP | viscosity @300 rpm (shear rate 500 s-1) after 60 minutes ([2]; 75 ppm THPS with 50 ppm hydroquinone, initial viscosity 25.1 cP): 17.1 cP | effect on depolymerization [2]: the depolymerization is controlled or stopped
